Reference: publication PMC6255837, “Ternary crystal structure of human RORγ ligand-binding-domain, an inhibitor and corepressor peptide provides a new insight into corepressor interaction” (Scientific Reports, 2018)

Key:
RORγ-LBD [1] = target: T1, RORγ-LBD (Homo sapiens, UniProt P51449); assay: FRET-based CoR peptide recruitment assay (dual TR-FRET); assay type: biochemical; conditions: for relative efficacy (RE) in CoR recruitment: compared with compound A
T1 construct: the glutathione-S-transferase (GST)-tagged RORγ-LBD produced in Sf9 cells; GST; made in house; host or cells: Sf9 cells
T1 sequence (P51449 269-508 limits assumed): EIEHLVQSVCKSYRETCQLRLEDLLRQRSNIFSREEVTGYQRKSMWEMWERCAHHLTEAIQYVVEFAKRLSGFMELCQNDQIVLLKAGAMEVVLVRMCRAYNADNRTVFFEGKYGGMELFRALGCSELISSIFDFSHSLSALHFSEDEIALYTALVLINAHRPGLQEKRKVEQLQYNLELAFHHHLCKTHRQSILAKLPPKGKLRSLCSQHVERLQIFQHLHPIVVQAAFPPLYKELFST
Protocol: Figure 1 The relative efficacy (RE) of CoR peptide recruitment to the RORγ-LBD and LUC activity by inverse agonists. […] Background activity in the absence of a standard inverse agonist is defined as 0% response; and maximum activity induced by a standard inverse agonist at 100μM as 100% response. […] A value of 100% is given to cells without inverse agonist in LUC assay. […] Detailed methods on plasmid construction, sample preparation, crystallization, structure determination, and FRET and LUC assays are provided in previous publications. […] The purified proteins were crystallized in complex with rockogenin and CoR peptide (ternary complex structures). […] The complex structures were determined by molecular replacement method using the RORγ-LBD apo structures as a search model. Diffraction data of the RORγ-LBD were collected at 21IDF (APS), Chicago, USA. Figures were generated using PyMOL[30].
(§1) For TR-FRET assays, the glutathione-S-transferase (GST)-tagged RORγ-LBD produced in Sf9 cells and peptide solution were incubated with compounds, and the 520/490 TR-FRET ratio was measured. Human RORγ LUC assays were carried out in accordance with the method of Madoux et al.[31] with some modifications and described previously. EC50 was calculated by curve-fitting in GraphPad Prism. Detailed descriptions of synthesis for the compounds are described elsewhere[9],[22].

IL-17 release = test system: IL-17 release; set-up: method as in PMID 26819660; conditions: orally administered, inflammatory model mice; cited from earlier work
RORγ-LBD [2] = target: T1, RORγ-LBD; assay: FRET-based CoA peptide releasing assay (dual TR-FRET); assay type: biochemical; conditions: GST-tagged RORγ-LBD, read-out: EC50 release of CoA peptide (FRET)
Protocol: Figure 1 The relative efficacy (RE) of CoR peptide recruitment to the RORγ-LBD and LUC activity by inverse agonists. […] Background activity in the absence of a standard inverse agonist is defined as 0% response; and maximum activity induced by a standard inverse agonist at 100μM as 100% response. […] A value of 100% is given to cells without inverse agonist in LUC assay.
Detailed methods on plasmid construction, sample preparation, crystallization, structure determination, and FRET and LUC assays are provided in previous publications. […] The purified proteins were crystallized in complex with rockogenin and CoR peptide (ternary complex structures). […] The complex structures were determined by molecular replacement method using the RORγ-LBD apo structures as a search model. Diffraction data of the RORγ-LBD were collected at 21IDF (APS), Chicago, USA. Figures were generated using PyMOL[30].
as §1

Human RORγ = target: T2, Human RORγ (Homo sapiens, UniProt P51449); assay: Human RORγ luciferase (LUC) reporter assay; assay type: cell-based; conditions: for LUC activity relative to compound A: fold difference of EC50 versus compound A
T2 sequence (P51449 1-518): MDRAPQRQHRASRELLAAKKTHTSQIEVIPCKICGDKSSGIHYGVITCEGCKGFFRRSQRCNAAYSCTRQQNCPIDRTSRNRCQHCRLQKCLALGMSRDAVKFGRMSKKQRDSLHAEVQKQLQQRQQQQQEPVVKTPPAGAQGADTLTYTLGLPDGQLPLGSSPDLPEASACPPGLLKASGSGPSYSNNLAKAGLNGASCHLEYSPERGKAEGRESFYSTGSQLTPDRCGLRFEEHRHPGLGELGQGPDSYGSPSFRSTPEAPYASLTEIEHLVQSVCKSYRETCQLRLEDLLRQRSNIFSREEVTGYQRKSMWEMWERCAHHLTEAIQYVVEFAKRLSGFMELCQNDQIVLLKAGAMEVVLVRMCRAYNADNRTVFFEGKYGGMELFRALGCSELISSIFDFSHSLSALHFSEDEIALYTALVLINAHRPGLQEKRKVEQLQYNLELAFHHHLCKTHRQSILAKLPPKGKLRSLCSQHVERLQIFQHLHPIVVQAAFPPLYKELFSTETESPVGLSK
Protocol: Figure 1 The relative efficacy (RE) of CoR peptide recruitment to the RORγ-LBD and LUC activity by inverse agonists. […] Background activity in the absence of a standard inverse agonist is defined as 0% response; and maximum activity induced by a standard inverse agonist at 100μM as 100% response. […] A value of 100% is given to cells without inverse agonist in LUC assay. […] Human RORγ LUC assays were carried out in accordance with the method of Madoux et al.[31] with some modifications and described previously. EC50 was calculated by curve-fitting in GraphPad Prism. Detailed descriptions of synthesis for the compounds are described elsewhere[9],[22].

Th17 cells = test system: Th17 cells; set-up: method as in earlier work; conditions: cited from earlier work

**Q.** With `C[C@@H]1CC[C@@]2(OC1)O[C@H]1C[C@H]3[C@@H]4CC[C@H]5C[C@@H](O)CC[C@]5(C)[C@H]4C[C@@H](O)[C@]3(C)[C@H]1[C@@H]2C` [rockogenin] as the compound, how does the “CoR peptide-recruiting activity in dual FRET assay” value (RORγ-LBD [1]; result in words) read?
**A.** not detected

**Q.** For `CC(=O)N1CC(C(=O)Nc2ccc(C)cc2C)C(c2nnc(C3CC(CC(C)C)C3)n2C2CC2)C1` (stereo not shown) [compound A], which IL-17 release (IL-17 release) is on record?
**A.** effectively suppressed IL-17 release in a dose-dependent manner

**Q.** For `COc1ccc(-c2c(-c3nc(CC(=O)NCC4CCOCC4)cs3)cnn2C(C)(C)C)cc1` [compound T], which EC50 (RORγ-LBD [1]; TR-FRET, GST-tagged RORγ-LBD, compound T n = 1) is on record?
**A.** 250 nM

**Q.** What about the “relative efficacy (RE) in CoR recruitment” value (RORγ-LBD [1]) of the same compound?
**A.** about half that of compound A

**Q.** What about the “relative efficacy (RE) in CoR recruitment” value (RORγ-LBD [1]; listed as Compound T) of the same compound?
**A.** half the efficacy of compound A

**Q.** What about the EC50 (RORγ-LBD [2]) of the same compound?
**A.** 500 nM

**Q.** And the “LUC activity relative to compound A” value (Human RORγ)?
**A.** nine times lower activity

**Q.** And the “LUC activity relative to compound A” value (Human RORγ; listed as Compound T)?
**A.** nine-times lower than compound A

**Q.** What about the EC50 (Human RORγ; luciferase reporter assay, means ± SE (n = 2–3)) of the same compound?
**A.** 440 nM

**Q.** What about the “production of IL-17” value (Th17 cells) of the same compound?
**A.** inhibits the production of IL-17
